# Test results reported in patent US10544186B2, “Process for the synthesis of amide bonds with the aid of novel catalysts” (Merck Patent GmbH, priority 2016, dated 2020).
# Counter-ions that a name gives are not always drawn. Like-named read-outs stand apart in the source and are kept apart here.
# Experiments:
# [1] = Solubility of the amide linking reagents in organic solvents; type: physicochemical; settings: for solubility: organic solvent or mixture, thermodynamic from solid
# Experimental: All solubility determinations are carried out in a tared gas-tight 4 ml bottle with magnetic stirrer bar. The amide linking reagent (at least 5 mg) is weighed out and a certain amount of the solvent to be investigated is added. The mixture is stirred for 2-5 minutes. If undissolved solid is still present, solvent (50-100 μl) is additionally added, and the mixture is stirred again. As soon as a clear solution is present, the experiment is terminated.
# [2] = solvent 9CH2Cl2:1CH3CN, read-out: solubility in 9CH2Cl2:1CH3CN
# [3] = solvent CH2Cl2, read-out: solubility in CH2Cl2
# [4] = solvent CH3CN, read-out: solubility in CH3CN
# [5] = solvent DMF, read-out: solubility in DMF
# [6] = solvent Hexane, read-out: solubility in Hexane
# [7] = solvent THF, read-out: solubility in THF
# [8] = solvent Toluene, read-out: solubility in Toluene
Compound,solubility in 9CH2Cl2:1CH3CN ([1]; solvent 9CH2Cl2:1CH3CN) [mg/mL],solubility in CH2Cl2 ([1]; solvent CH2Cl2) [mg/mL],solubility in CH3CN ([1]; solvent CH3CN) [mg/mL],solubility in DMF ([1]; solvent DMF) [mg/mL],solubility in Hexane ([1]; solvent Hexane) [mg/mL],solubility in THF ([1]; solvent THF) [mg/mL],solubility in Toluene ([1]; solvent Toluene) [mg/mL],solubility in the nonpolar solvents hexane and toluene compared with the BF4/PF6 analogue ([1]; hexane and toluene),"solubility [1, 2] [mg/mL]","solubility [1, 3] [mg/mL]","solubility [1, 4] [mg/mL]","solubility [1, 5] [mg/mL]","solubility [1, 6] [mg/mL]","solubility [1, 7] [mg/mL]","solubility [1, 8] [mg/mL]",melting point
"CN(C)C(n1n[n+]([O-])c2ccccc21)=[N+](C)C.F[P-](F)(F)(F)(F)F [HBTU, 1-(dimethylamino(dimethylamonium-1-ylidene)methyl)-1H-benzo[d][1,2,3]triazole 3-oxide hexafluorophosphate, reference compound]",<2.8,<1.1,124,200,<1.2,<3.6,<1.2,–,–,–,–,–,–,–,–,–
"F[P-](F)(F)(F)(F)F.[O-][n+]1nn(C(N2CCCC2)=[N+]2CCCC2)c2ccccc21 [HBPyU, 1-(pyrrolidino(pyrrolidinium-1-ylidene)methyl)-1H-benzo-[d][1,2,3]triazole 3-oxide hexafluorophosphate, reference compound]",–,–,–,–,–,–,–,–,118,68.3,510,540,< 1.2,< 3.3,< 1.2,–
"1-(Dimethylamino(dimethylammonium-1-yliden)methyl)-1H-azabenzo-[d][1,2,3]triazole 3-oxide tris(pentafluoroethyl)trifluorophosphate [ATU-FAP]",67,<1.2,>2000,>2000,<1.2,670,<1.2,–,–,–,–,–,–,–,–,–
"CN(C)C(Sc1cccc[n+]1[O-])=[N+](C)C.F[P-](F)(F)(F)(F)F [HOTT, S-(1-oxido-2-pyridyl)-N,N,N′,N′-tetramethylthiouronium hexafluorophosphate, reference compound]",–,–,–,–,–,–,–,–,180,59,810,690,< 1.2,< 1.2,< 1.2,–
"CN(C)[P+](On1nnc2ccccc21)(N(C)C)N(C)C.F[P-](F)(F)(F)(F)F [BOP, (benzotriazol-1-yloxy)tris(dimethylamino)phosphonium hexafluorophosphate, reference compound]",–,–,–,–,–,–,–,–,> 335,> 380,510,660,< 1.2,< 4.2,< 1.2,–
"CCOC(=O)C(C#N)=NO[C+](N(C)C)N1CCOCC1.F[P-](F)(F)(F)(F)F [COMU, (1-cyano-2-ethoxy-2-oxoethylideneaminooxy)dimethylaminomorpholinocarbenium hexafluorophosphate, reference compound]",–,–,–,–,–,–,–,–,294,82,565,530,< 1.2,4.1,3.2,–
"CN(C)C(Oc1c(F)c(F)c(F)c(F)c1F)=[N+](C)C.F[P-](F)(F)(F)(F)F [PfTU, O-pentafluorophenyl-N,N,N′,N′-tetramethyluronium hexafluorophosphate, reference compound]",2.5,<1.2,1000,1000,<1.2,<1.2,<1.2,–,–,–,–,–,–,–,–,–
"1-(Dimethylamino(dimethylammonium-1-ylidene)methyl)-1H-benzo[d]-1,2,3-triazole 3-oxide tris(pentafluoroethyl)trifluorophosphate [BTU-FAP]",120,6.9,>1040,>1200,<1.2,364,<1.2,–,–,–,–,–,–,–,–,–
"[O-][n+]1nn(C(N2CCCC2)=[N+]2CCCC2)c2ccccc21 [BPyU-FAP, 1-(Pyrrolidino(pyrrolidinium-1-ylidene)methyl)-1H-benzo[d]-1,2,3-triazole 3-oxide tris(pentafluoroethyl)trifluorophosphate]",–,–,–,–,–,–,–,–,190,57,> 1020,> 1100,< 1.2,510,< 1.2,–
(Benzotriazol-1-yloxy)tris(dimethylamino)phosphonium tris(pentafluoroethyl)trifluorophosphate [BOP-FAP],>800,>1040,>700,>1100,<1.2,>1200,<1.2,–,–,–,–,–,–,–,–,–
"CN(C)C(On1nnc2ccccc2c1=O)=[N+](C)C.F[B-](F)(F)F [HDBTU, O-(3,4-dihydro-4-oxo-1,2,3-benzotriazin-3-yl)-N,N,N′,N′-tetramethyluronium tetrafluoroborate, reference compound]",–,–,–,–,–,–,–,–,17,3.75,240,250,< 1.2,< 3.3,< 1.2,–
(7-Azabenzotriazol-1-yloxy)tris(pyrrolidino)phosphonium tris(pentafluoroethyl)trifluorophosphate [PyAOP-FAP],>2000,>2000,>2000,>2000,<1.2,>2000,–,–,–,–,–,–,–,–,–,–
"[O-][n+]1nn(C(N2CCCC2)=[N+]2CCCC2)c2ccccc21 (as salt: phosphate) [BPyU-FAP, 1-(Pyrrolidino(pyrrolidinium-1-ylidene)methyl)-1H-benzo[d]-1,2,3-triazole 3-oxide tris(pentafluoroethyl)trifluorophosphate]",–,–,–,–,–,–,–,–,–,–,–,–,–,–,–,173 °C (dec.)
"F[P-](F)(F)(F)(F)F.c1cnc2c(c1)nnn2O[P+](N1CCCC1)(N1CCCC1)N1CCCC1 [PyAOP, (7-azabenzotriazol-1-yloxy)tris(pyrrolidino)phosphonium hexafluorophosphate, reference compound]",–,–,–,–,–,–,–,–,670,1000,1000,670,< 1.2,6,< 1.2,–

# Continued, in another order:
solubility in 9CH2Cl2:1CH3CN ([1]; solvent 9CH2Cl2:1CH3CN) [mg/mL],solubility in CH2Cl2 ([1]; solvent CH2Cl2) [mg/mL],solubility in CH3CN ([1]; solvent CH3CN) [mg/mL],solubility in DMF ([1]; solvent DMF) [mg/mL],solubility in Hexane ([1]; solvent Hexane) [mg/mL],solubility in THF ([1]; solvent THF) [mg/mL],solubility in Toluene ([1]; solvent Toluene) [mg/mL],solubility in the nonpolar solvents hexane and toluene compared with the BF4/PF6 analogue ([1]; hexane and toluene),Compound,"solubility [1, 2] [mg/mL]","solubility [1, 3] [mg/mL]","solubility [1, 4] [mg/mL]","solubility [1, 5] [mg/mL]","solubility [1, 6] [mg/mL]","solubility [1, 7] [mg/mL]","solubility [1, 8] [mg/mL]",melting point
>2000,690,>2000,>2000,<1.2,1400,<1.2,–,"S-(1-Oxido-2-pyridyl)-N,N,N′,N′-tetramethylthiouronium tris(pentafluoroethyl)trifluorophosphate [OTT-FAP]",–,–,–,–,–,–,–,–
–,–,–,–,–,–,–,solubility improvement,"CCOC(=O)/C(C#N)=N/OC(N1CCOCC1)=[N+](C)C [COMU-FAP, (1-Cyano-2-ethoxy-2-oxoethylideneaminooxy)dimethylaminomorpholinocarbenium tris(pentafluoroethyl)trifluorophosphate]",> 2000,180,905,> 1500,2.1,349,4.5,–
2.9,<1.2,265,220,<1.2,<1.2,<1.2,–,"CN(C)C(ON1C(=O)CCC1=O)=[N+](C)C.F[B-](F)(F)F [TSTU, O—(N-succinimidyl)-N,N,N′,N′-tetramethyluronium tetrafluoroborate, reference compound]",–,–,–,–,–,–,–,–
>2000,1000,>2000,>2000,<1.2,1000,<1.2,–,"O-Pentafluorophenyl-N,N,N′,N′-tetramethyluronium tris(pentafluoroethyl)trifluorophosphate [PfTU-FAP]",–,–,–,–,–,–,–,–
>1500,>1650,>1550,>1550,<1.2,>1500,5.0,–,(Benzotriazol-1-yloxy)tris(pyrrolidino)phosphonium tris(pentafluoroethyl)trifluorophosphate [PyBOP-FAP],–,–,–,–,–,–,–,–
480,>780,>860,>1125,<1.2,>780,<1.2,–,"O-(3,4-Dihydro-4-oxo-1,2,3-benzotriazin-3-yl)-N,N,N,N′-tetramethyluronium tris(pentafluoroethyl)trifluorophosphate [DBTU-FAP]",–,–,–,–,–,–,–,–
